B1: PaD2HGDH (Pseudomonas aeruginosa PAO1) (protein)
chain: MTREALIESLKPLVEPGKLLDDAASLDAYGKDWTKHFAPAPLAIVFPKSVEQVQAIVRWANQHKVGLVPSGGRTGLSAAAVAANGEVVVAFDYMNRILDFNAFDRTVVCQPGVVTKQLQTFAEENGLYYPVDFASSGSSQIGGNIGTNAGGIKVIRYGMTRNWVAGMKVVTGKGDLLELNKDLIKNATGYDMRQLFIGAEGTLGFVVEATMRLERTPKNLTAMVLGTPDFDSIMPVLHAFQSKLDLTAFEFFSDKALAKVLARGDVPRAFETDCPFYALLEFEATTEEVANEALATFEHCVEQGWVLDGVMSQSEQQLQNLWKLREYISETISHWTPYKNDISVTVSRVPAFLKDIDAIVEANYPDFEVVWFGHIGDGNLHLNILKPENLGKDEFFAKCATVNKWVFETVEKYNGSISAEHGVGMTKRDYLTYTRSETEIAYMKALKAVFDPNGIMNPGKIFAE
notes: full-length wild type, C-terminal 6x-His tag kept, pET20b(+), expressed in E. coli Rosetta(DE3)pLysS, Ni-NTA purified

molecular target: T1, PaD2HGDH (Pseudomonas aeruginosa, UniProt Q9I6H4); assay: PMS-driven oxygen consumption, initial rates, steady-state inhibition; format: biochemical; details: read-out: Kis
T1 construct: gene PA0317; full-length wild type, C-terminal 6x-His tag kept, pET20b(+), expressed in E. coli Rosetta(DE3)pLysS, Ni-NTA purified
T1 sequence (Q9I6H4 1-464): B1 chain
Source text: PMS-driven oxygen consumption, initial rates, steady-state inhibition on PaD2HGDH

Molecule | Ki [mM]
O=C(O)C(O)c1ccc(O)c(O)c1 (racemic) [D/L-3,4-Dihydroxymandelate] | 4.1 ± 0.3
O=C(O)C(O)c1ccc(O)cc1 (racemic) [D/L-4-Hydroxymandelate] | 6.5 ± 0.7
O=C(O)CC(C(=O)O)C(O)C(=O)O (racemic) [D/L-Isocitrate] | 7.8 ± 0.4
O=C(O)CCC(=O)C(=O)O [2-Ketoglutarate] | 4.3 ± 0.3
O=C(O)[C@H](O)c1ccccc1 [D-Mandelate] | 18.4 ± 0.6
O=C(O)CC[C@H](O)C(=O)O [L-2-Hydroxyglutarate] | 4.1 ± 0.4
O=C(O)C[C@H](O)C(=O)O [L-Malate] | 14.6 ± 1.5
O=C(O)CC(=O)C(=O)O [Oxaloacetate] | 2.02 ± 0.03
O=C(O)C(O)C(=O)O [Tartronate] | 18.6 ± 1.3

substrate: O=C(O)C[C@@H](O)C(=O)O; assay: PMS-driven oxygen consumption, initial rates, global fit of inhibition data; format: biochemical, Pseudomonas aeruginosa; details: fitted in the oxaloacetate inhibition assay (Ka extrapolated to no inhibitor), D-malate 1-60 mM, 1 mM PMS, 25 mM NaPO4 pH 7.4, 25 °C
Source text: PMS-driven oxygen consumption, initial rates, global fit of inhibition data on PaD2HGDH

Molecule | Km [mM] | kcat [s⁻¹]
B1 | 8.4 ± 0.1 | 29.1 ± 0.1

— article PMC12509308, “Stereochemistry and Charged State Influence Effector Outcomes of D‑2-Hydroxyglutarate Dehydrogenase Ligands” (Biochemistry, 2025)
